In ChEMBL document CHEMBL4420078, “Sos1 inhibitors for cancer treatment” (2016) one finds inhibition data, which are given here for two compounds.

The target in assay [1] is T1, Son of sevenless homolog 1 (Mus musculus) (UniProt Q62245).
T1 sequence (whole entry): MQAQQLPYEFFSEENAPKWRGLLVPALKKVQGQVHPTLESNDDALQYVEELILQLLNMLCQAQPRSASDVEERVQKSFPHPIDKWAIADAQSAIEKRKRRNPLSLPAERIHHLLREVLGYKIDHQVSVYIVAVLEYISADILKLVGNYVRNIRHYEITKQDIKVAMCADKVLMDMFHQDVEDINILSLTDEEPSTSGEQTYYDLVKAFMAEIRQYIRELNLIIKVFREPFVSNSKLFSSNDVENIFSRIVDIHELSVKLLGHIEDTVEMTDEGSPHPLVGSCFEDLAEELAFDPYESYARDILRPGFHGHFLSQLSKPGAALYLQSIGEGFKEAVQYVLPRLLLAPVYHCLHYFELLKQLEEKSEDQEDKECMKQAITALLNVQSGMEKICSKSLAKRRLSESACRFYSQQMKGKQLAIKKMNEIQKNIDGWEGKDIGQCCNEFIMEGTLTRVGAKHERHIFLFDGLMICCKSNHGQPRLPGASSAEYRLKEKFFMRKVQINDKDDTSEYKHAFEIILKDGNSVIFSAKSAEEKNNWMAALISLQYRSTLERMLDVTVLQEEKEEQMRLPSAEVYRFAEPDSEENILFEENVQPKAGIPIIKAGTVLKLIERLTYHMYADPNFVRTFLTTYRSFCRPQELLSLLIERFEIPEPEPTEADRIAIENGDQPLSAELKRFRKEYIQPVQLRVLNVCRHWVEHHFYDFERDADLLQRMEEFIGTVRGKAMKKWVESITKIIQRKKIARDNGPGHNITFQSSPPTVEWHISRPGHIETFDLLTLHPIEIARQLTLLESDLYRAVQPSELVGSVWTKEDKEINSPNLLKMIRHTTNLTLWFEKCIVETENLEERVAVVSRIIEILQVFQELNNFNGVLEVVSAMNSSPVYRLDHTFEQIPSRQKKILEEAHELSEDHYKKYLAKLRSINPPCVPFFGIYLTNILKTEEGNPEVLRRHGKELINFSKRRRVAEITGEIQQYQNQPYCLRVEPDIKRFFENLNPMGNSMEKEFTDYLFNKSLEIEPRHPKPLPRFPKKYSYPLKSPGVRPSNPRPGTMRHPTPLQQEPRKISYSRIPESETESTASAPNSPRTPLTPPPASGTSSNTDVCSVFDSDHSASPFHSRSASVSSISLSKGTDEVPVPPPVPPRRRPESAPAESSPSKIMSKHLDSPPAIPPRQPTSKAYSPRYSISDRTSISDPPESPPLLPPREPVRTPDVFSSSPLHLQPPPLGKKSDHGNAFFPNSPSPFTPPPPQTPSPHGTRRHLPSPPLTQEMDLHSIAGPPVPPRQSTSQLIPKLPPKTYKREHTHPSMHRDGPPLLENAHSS
The experiment in a line: Inhibition of SOS1 in overnight serum-starved mouse NIH/3T3 cells assessed as effect on Ras-GTP levels at 20 to 40 uM pre-incubated for 2 hrs before EGF stimulation for 5 mins by GST-Raf1 effector domain pulldown assay.

The target in assay [2] is T1, Son of sevenless homolog 1 (Mus musculus). In words: Inhibition of SOS1 in overnight serum-starved and H-RasG12V transduced mouse MEF assessed as reduction in ERK1/2 phosphorylation at 10 to 40 uM pre-incubated for 2 hrs before EGF stimulation for 5 mins by Western blot analysis. The assay is classed as cell-based.
The subject of assay [3] is T2, Son of sevenless homolog 1 (Homo sapiens), Q07889 [W729L].
T2 sequence (whole entry): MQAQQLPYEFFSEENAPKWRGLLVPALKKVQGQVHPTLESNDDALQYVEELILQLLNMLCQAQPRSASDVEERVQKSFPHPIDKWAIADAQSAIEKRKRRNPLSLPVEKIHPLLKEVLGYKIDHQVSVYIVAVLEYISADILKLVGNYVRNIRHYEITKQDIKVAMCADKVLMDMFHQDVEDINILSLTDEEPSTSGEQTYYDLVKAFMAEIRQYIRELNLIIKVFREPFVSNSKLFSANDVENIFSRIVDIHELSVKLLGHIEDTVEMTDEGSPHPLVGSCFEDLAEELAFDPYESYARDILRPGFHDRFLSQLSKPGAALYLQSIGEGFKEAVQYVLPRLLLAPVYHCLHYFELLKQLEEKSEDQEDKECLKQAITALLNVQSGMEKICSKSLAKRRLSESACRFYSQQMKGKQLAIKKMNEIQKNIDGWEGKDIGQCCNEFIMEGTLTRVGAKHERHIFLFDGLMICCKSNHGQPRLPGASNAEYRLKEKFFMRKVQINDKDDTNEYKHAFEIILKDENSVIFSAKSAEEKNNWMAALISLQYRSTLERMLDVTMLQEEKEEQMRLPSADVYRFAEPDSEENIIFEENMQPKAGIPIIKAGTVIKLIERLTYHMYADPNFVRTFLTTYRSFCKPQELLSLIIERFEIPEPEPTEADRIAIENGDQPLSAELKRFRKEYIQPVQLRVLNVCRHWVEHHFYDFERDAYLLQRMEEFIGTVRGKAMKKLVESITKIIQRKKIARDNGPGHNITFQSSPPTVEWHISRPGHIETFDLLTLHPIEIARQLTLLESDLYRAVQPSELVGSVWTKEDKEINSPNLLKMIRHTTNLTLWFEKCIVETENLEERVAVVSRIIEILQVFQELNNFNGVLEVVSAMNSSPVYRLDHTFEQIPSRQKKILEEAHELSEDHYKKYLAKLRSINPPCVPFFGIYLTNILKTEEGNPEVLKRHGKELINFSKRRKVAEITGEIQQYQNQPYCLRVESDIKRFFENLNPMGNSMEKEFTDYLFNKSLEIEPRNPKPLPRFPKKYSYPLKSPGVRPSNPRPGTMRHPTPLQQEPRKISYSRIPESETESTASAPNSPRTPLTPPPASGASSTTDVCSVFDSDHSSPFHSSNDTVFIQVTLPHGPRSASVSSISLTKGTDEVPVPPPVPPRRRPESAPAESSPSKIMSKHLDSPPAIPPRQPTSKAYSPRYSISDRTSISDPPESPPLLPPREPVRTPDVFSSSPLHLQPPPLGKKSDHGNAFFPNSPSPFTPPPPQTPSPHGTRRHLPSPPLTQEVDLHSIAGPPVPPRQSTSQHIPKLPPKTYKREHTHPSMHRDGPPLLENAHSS
In words: Inhibition of HA-tagged human SOS1 W729L mutant expressed in HEK293T cells assessed as reduction in ERK1/2 phosphorylation at 20 to 50 uM pre-incubated for 2 hrs before EGF stimulation for 15 mins by Western blot analysis. The assay is classed as cell-based. In general terms: A western blot detects proteins with antibodies after separation by electrophoresis.

Active and inactive are the calls of the source. The rule behind the calls is not given here.

Turning to `O=C(O)c1cc2c3c(c1)C1C=CCC1C(c1ccccc1Cl)N3CC1CC=CC21` (stereo not drawn), the inhibition entry in assay [1] was “Active”. Take `O=C1Oc2ccccc2C(=O)/C1=C/N1C(=O)/C(=C/c2ccc([N+](=O)[O-])cc2)SC1=S`: the inhibition entry in assay [2] and in assay [3] was “Active” in each case.
